Assay results: article PMC12302426, “Dihydrokoumine, a dual-target analgesic with reduced side effects isolated from a traditional Chinese medicine” (Journal of Advanced Research, 2024)

What was measured:
mu opioid receptor (MOR) = target: T1, mu opioid receptor (MOR) (Homo sapiens, UniProt P35372); assay: DMR assay in HEK293T-Mu cells (agonist, desensitization, antagonist); type: cell-based
T1 construct: expressed in transfected cells; host or cells: HEK293T-Mu
Method: DMR assays were performed using an Epic® BT system (Corning, NY, USA). All used cell lines were directly seeded in Epic 384-well biosensor microplates with a seeding density of 25,000 cells per well. After being cultured for about 22 h, the cells formed a monolayer with a confluency of about 95 % in the cell culture medium. Then the cells were manually washed using assay buffer (1 × HBSS buffer, 10 mM HEPES, pH = 7.4) and maintained in 30 μL of the assay buffer for 1 h. All samples were dissolved in DMSO and diluted freshly with the assay buffer containing 0.1 % BSA.
The DMR assays were conducted as follows. […] In the case of the DMR desensitization assay, cells were pretreated with analytes for one hour before introducing a specific agonist at the indicated concentration, and the agonist-induced DMR signals were monitored for one hour. Finally, for the DMR antagonist assay, cells underwent a 1-hour pretreatment with an antagonist before the addition of a specific agonist at the indicated concentration, and subsequent DMR signals were recorded over one hour.

C57BL/6 male mice = assay: Rotarod test (motor coordination, sedation); type: in vivo; conditions: DK 20, 40 mg/kg i.p., one hour before testing
Method: Motor coordination were evaluated by the rotarod test, which was conducted as previously reported. Six-week-old C57BL/6 male mice were used in […] (n = 6). Mice underwent a three-day training period, twice daily (9:00 am and 3:00 pm), to make them stay balanced on the rotarod apparatus (Columbus), with a 3 cm diameter and rotating at a constant 11 rpm. Motor coordination was evaluated through mice's endurance on the rotating rod. Selection criteria included mice maintaining balance for 60–120 s. On the fourth day, mice were intraperitoneally injected (5 mL/kg) with a solvent mixture, morphine (5 mg/kg), or DK (20, 40 mg/kg) one hour before testing. Latency to fall (in seconds) was recorded after placing mice on the rotarod, with a 120-second cut-off time.

C57BL/6 mice = assay: Acute toxicity study; type: in vivo; conditions: 200 mg/kg daily for 14 days
Method: Sixteen C57BL/6 mice (25 ± 1 g, 8 males, 8 females) were used in acute toxicity studies. The mice were randomly divided into 2 groups (half male, half female each group) and treated with either solvent mixture (control) or 200 mg/kg DK (DK-treated) daily for 14 days. Throughout the study, the animals were monitored for motor activity, mortality, and body weight changes, which were recorded every other day.
At the end of the experiment (24 h after final DK administration), blood samples were collected via direct heart puncture, allowed to clot at room temperature, and centrifuged at 3000 rpm for 15 min. Serum was separated and stored at […] for biochemical analysis. Liver and renal injury markers, including aspartate transaminase (AST), alanine transaminase (ALT), UREA, CREA, albumin (ALB), urine acid (UA) and Glucose (Glu), were measured using an automatic biochemical analyzer (Chemray 240, 420 and 800, Rayto, China).
Following blood collection, the mice were sacrificed, and the heart, liver, spleen, lung and kidney were excised. These tissues were fixed in 4 % paraformaldehyde (PFA), dehydrated gradually using ethanol (50–100 %), and embedded in paraffin after clearing with xylene. Sections ([…] thick) were stained with hematoxylin and eosin (HE) for examination.

T1 sequence (P35372 whole entry): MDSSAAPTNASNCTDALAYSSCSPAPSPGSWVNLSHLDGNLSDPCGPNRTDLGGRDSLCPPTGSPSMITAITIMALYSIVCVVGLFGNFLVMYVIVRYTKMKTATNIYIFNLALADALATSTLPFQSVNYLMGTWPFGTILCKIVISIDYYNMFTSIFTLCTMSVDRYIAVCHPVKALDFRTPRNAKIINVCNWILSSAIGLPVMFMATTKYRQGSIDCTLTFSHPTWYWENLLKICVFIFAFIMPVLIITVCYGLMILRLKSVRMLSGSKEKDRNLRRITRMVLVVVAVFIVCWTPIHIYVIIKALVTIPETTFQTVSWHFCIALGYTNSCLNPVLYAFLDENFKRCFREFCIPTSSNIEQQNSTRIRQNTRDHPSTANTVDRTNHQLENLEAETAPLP

**Q.** With `C=CC12CN(C)C3CC14c1ccccc1NC4C1CC2C3CO1` (stereo not drawn) [DK] as the molecule, how does the “maximum DMR response compared with endomorphin-1” value (mu opioid receptor (MOR)) read?
**A.** The value was “half of the maximum DMR response of endomorphin-1”.

**Q.** What about the “DMR response after naloxone pretreatment” value (mu opioid receptor (MOR); 100 μM DK, naloxone pretreatment one hour) of the same molecule?
**A.** The value was “could be antagonized by naloxone”.

**Q.** What about the EC50 (mu opioid receptor (MOR); DMR agonist assay, read-out: EC50 of DMR response) of the same molecule?
**A.** Its EC50 is 16.3 ± 1.05 µM.

**Q.** And the “concentration-dependent DMR response at MOR compared with purified DK” value (mu opioid receptor (MOR); semisynthesized material)?
**A.** The value was “its activity was close to that of purified DK”.

**Q.** What about the “sedative effect (locomotion, latency to fall)” value (C57BL/6 male mice) of the same molecule?
**A.** Its value is “not a sedative at the tested doses”.

**Q.** What about the body weight gain (C57BL/6 mice) of the same molecule?
**A.** The body weight gain was “no significant differences between DK-treated and control groups”.

**Q.** And the “organ coefficients (heart, liver, spleen, lung, kidney)” value (C57BL/6 mice)?
**A.** Its value is “comparable between the two groups”.

**Q.** What about the “serum biochemical indicators and histological analysis of major organs (HE staining)” value (C57BL/6 mice) of the same molecule?
**A.** The value was “no significant structural or biochemical differences”.

**Q.** What about the “visible abnormalities of major organs” value (C57BL/6 mice) of the same molecule?
**A.** Its value is “No visible abnormalities were detected in the major organs”.
